Earlier results on one compound are cited in patent US12685710B2, “Administration of ciclopirox with no adversal gastrointestinal toxicity” (ATLAS MOLECULAR PHARMA, S.L., priority 2021, dated 2026).

This data set has as its system patients with hematological malignancies.

As for `Cc1cc(C2CCCCC2)n(O)c(=O)c1` [ciclopirox olamine, 6-cyclohexyl-1-hydroxy-4-methyl-2 (1H)-pyridone with 2-aminoethanol in a 1:1 ratio], the “grade 3 GI dose limiting toxicity (DLTs) and bowel inflammation, patients affected in cohort” value (oral, OraSweet formulation, 80 mg/m^2 (2.2 mg/kg) 4 times daily) was 3/4. The “tolerability of once-daily dosing” value (oral, once daily up to and including 40 mg/m^2 (1.1 mg/kg)) is on record as “well tolerated”. Also, under “patients treated with ciclopirox olamine”, the “gastrointestinal toxicity in Phase I study” value was “showed gastrointestinal toxicity”.
